Source: patent US20150018305A1, “SIRTUIN INDUCER, TISSUE REPAIRING AGENT, HEPATOCYTE GROWTH FACTOR INDUCER, TISSUE HOMEOSTASIS MAINTENANCE AGENT, AND TLR4 AGONIST, HAVING HYALURONIC ACID FRAGMENT AS ACTIVE INGREDIENT” (HYALURONAN RESEARCH INSTITUTE, INC., priority 2012, published 2015)

Tests used:
[1] = test system: activated (phosphorylated) NF-kappaB; assay: NF-kappaB expression in TNF-α treated human large intestine epithelial cells, fluorescent staining (Test Example 9); format: cell-based; conditions: TNF-α treatment, 10 ng/ml test substance, 24 hours
Experimental: It was investigated whether the expression of NF-kappaB in human large intestine epithelial cells (HT29 cells) when subjected to TNF-α treatment is affected by treatment with the hyaluronic acid fragment. NF-kappaB is a transcription factor involved in inflammation, tissue destruction, and the like.
DMEM culture medium (made by Wako Pure Chemical Industries, Ltd.) to which TNF-α and the hyaluronic acid fragment were added, and DMEM culture medium from which these were omitted, were prepared, and human large intestine epithelial cells were treated for 24 hours in these culture media. Thereafter, the cells were stained with an antibody that recognizes activated (phosphorylated) NF-kappaB.
The vertical axis of the graph indicates fluorescent intensity. It may be appreciated that, in cells to which four- to eight-unit hyaluronic acid fragments were added, the expression level of NF-kappaB is reduced in statistically significant fashion.

[2] = test system: liver function; assay: Concanavalin A liver damage model, blood GOT and GPT (Test Example 15); format: in vivo; conditions: concanavalin A 20 mg/kg caudal vein, fragment oral, after 24 hours, 20-month old female Balb/c mice
Experimental: The effect of action of the hyaluronic acid fragment on the liver of aged […] was investigated. Specifically, 20-month old (aged) female Balb/c mice were administered through the caudal vein with concanavalin A (20 mg/kg of body weight) one time, as a liver damage model. Subsequent to administration of concanavalin A, hyaluronic acid fragment (4mer or L3mer) were administered orally, and the effect thereof was investigated. Impairment of liver function was evaluated after 24 hours, by drawing blood and measuring the GOT and GPT values in the blood.

SMILES	expression level of NF-kappaB (fluorescent intensity) [1]	impairment of liver function (GOT values in the blood) [2]
CC(=O)N[C@H]1[C@H](O[C@H]2[C@H](O)[C@@H](O)[C@H](O[C@H]3[C@H](O)[C@@H](CO)OC(O)[C@@H]3NC(C)=O)O[C@@H]2C(=O)O)O[C@H](CO)[C@@H](O)[C@@H]1O[C@@H]1O[C@H](C(=O)O)[C@@H](O)[C@H](O)[C@H]1O (some centres unmarked) [4mer, GlcA(-GlcNAc-GlcA)1-GlcNAc]	inhibited to the greatest extent	–
CC(=O)NC1C(O[C@@H]2OC(C(=O)O)[C@@H](O)C(O)C2O)[C@H](O)C(CO)O[C@H]1O[C@@H]1C(C(=O)O)O[C@@H](OCCCN=[N+]=[N-])C(O)C1O (some centres unmarked) [L3mer]	–	markedly better with the L3mer than with the 4mer
